Values quoted from earlier work as cited in patent US20230404937A1, “NOVEL DISINTEGRATION ORAL FILM FORMULATION WITH A CONTROLLED OR SUSTAINED ACTIVE RELEASE” (INTELGENX CORP., priority 2022, published 2023).

Conditions: when orally ingested; first metabolized in the liver

Structure (SMILES): CCCCCc1cc(O)c2c(c1)OC(C)(C)[C@@H]1CCC(C)=C[C@@H]21 [THC, tetrahydrocannabinol]
- oral bioavailability: 5%
